*1 amine or outer side, *2 acyl side, *3 side chain or, on linkers, in order; H or OH if unused. Where a SMILES comes first, the peptide text is derived from it. Bridges are numbered along the chain shown (N, C = ends). [ ]: non-standard residue; d: D form. The star is where a group is joined. ξ: configuration not given here. X7 = O=C(O)CN1CCN(CC(=O)O)CCN(CC(=O)N[C@H]2CC[C@H](CC(=O)*)CC2)CCN(CC(=O)O)CC1; Ala(piperidin-4-yl) = O=C([C@H](CC1CCN([*:3])CC1)N[*:1])[*:2]; DOTA = O=C(O)CN1CCN(CC(=O)O)CCN(CC(=O)*)CCN(CC(=O)O)CC1; Trp(7-OMe) = COc1cccc2c(C[C@H](N)C(=O)O)c[nH]c12; Ala(morpholin-4-yl) = N[C@@H](CN1CCOCC1)C(=O)O; Trp(7-Me) = Cc1cccc2c(C[C@H](N)C(=O)O)c[nH]c12; Phe(4-F) = N[C@@H](Cc1ccc(F)cc1)C(=O)O; 2Nal = N[C@@H](Cc1ccc2ccccc2c1)C(=O)O; Nva(3-Et) = CCC(CC)[C@H](N)C(=O)O; Cha = N[C@@H](CC1CCCCC1)C(=O)O; NMeN = CN[C@@H](CC(N)=O)C(=O)O; Chg = N[C@H](C(=O)O)C1CCCCC1; NMeNle = CCCC[C@H](NC)C(=O)O; Nle = CCCC[C@H](N)C(=O)O; Dap = NC[C@H](N)C(=O)O; CH2 = C([*:1])[*:2]; ξP = O=C(O)C1CCCN1
Molecular target: T1, DLL3 (Homo sapiens, UniProt Q9NYJ7)
T1 sequence (Q9NYJ7 27-618): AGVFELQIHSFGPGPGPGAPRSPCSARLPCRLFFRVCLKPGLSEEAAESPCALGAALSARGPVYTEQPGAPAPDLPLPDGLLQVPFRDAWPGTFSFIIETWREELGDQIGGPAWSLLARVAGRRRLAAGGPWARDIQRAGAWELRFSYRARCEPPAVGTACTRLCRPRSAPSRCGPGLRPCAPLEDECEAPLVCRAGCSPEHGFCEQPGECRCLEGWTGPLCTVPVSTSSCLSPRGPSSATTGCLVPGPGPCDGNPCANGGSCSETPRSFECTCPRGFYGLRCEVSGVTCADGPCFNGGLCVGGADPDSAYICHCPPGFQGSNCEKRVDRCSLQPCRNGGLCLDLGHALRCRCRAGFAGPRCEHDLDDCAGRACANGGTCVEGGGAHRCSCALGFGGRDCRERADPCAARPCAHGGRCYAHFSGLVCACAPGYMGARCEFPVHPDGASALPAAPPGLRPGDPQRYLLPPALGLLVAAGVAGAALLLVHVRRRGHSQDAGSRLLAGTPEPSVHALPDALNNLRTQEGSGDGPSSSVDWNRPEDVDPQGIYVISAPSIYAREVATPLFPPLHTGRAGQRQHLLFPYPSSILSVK
Assay: SPR KD, biotinylated human DLL3 on streptavidin chip (Table 8)
Design: biotin (biotinylated)
Conditions: biotinylated human DLL3 on streptavidin sensor chip, 25° C., 1:1 binding model; read-out: SPR KD
From the text: Biotinylated target ligand human DLL3 was immobilized on a streptavidin sensor chip. A reference surface was set up for nonspecific binding and refractive index changes. […] Sensorgram curves were fitted with 1:1 binding model, and affinity and kinetic parameters were obtained using Biacore Insight evaluation 4.0. software.

Kd [nM]	Structure (SMILES)
< 1	CCCC[C@@H](C(=O)N[C@H]1CSCSC[C@@H](C(=O)N[C@@H](Cc2c[nH]c3ccccc23)C(=O)N2CCC[C@H]2C(N)=O)NC(=O)[C@H](CC(=O)O)NC(=O)[C@H](CCCCNC(=O)CN2CCN(CC(=O)O)CCN(CC(=O)O)CCN(CC(=O)O)CC2)NC(=O)[C@H](Cc2ccc3ccccc3c2)NC(=O)[C@H](CC(N)=O)NC(=O)[C@H](CC2CCNCC2)NC1=O)N(C)C(=O)[C@@H](NC(=O)[C@H](Cc1c[nH]c2c(C)cccc12)NC(C)=O)[C@@H](C)O [compound 431, Ac-(7Me-Trp)-T-(NMe-Nle)-C(1)-[3-(4-piperidinyl)-Ala]-N-(2Nal)-Lys(DOTA)-D-C(1)-W-P-CONH2] (Ac-[Trp(7-Me)]T[NMeNle]C[Ala(piperidin-4-yl)]N[2Nal]K(DOTA)DCWP-NH2; linker 4-10 via CH2)
< 1	CC(=O)N[C@@H](Cc1c[nH]c2ccccc12)C(=O)N[C@H](C(=O)N[C@H](C(=O)N[C@H]1CSCSC[C@@H](C(=O)N[C@@H](Cc2c[nH]c3ccccc23)C(=O)N2CCC[C@H]2C(N)=O)NC(=O)[C@H](C)NC(=O)[C@H](CCCCNC(=O)CN2CCN(CC(=O)O)CCN(CC(=O)O)CCN(CC(=O)O)CC2)NC(=O)[C@H](Cc2ccc3ccccc3c2)NC(=O)[C@H](CC(N)=O)NC(=O)[C@H](CC2CCNCC2)NC1=O)C1CCCCC1)[C@@H](C)O [compound 416, Ac-W-T-(Chg)-C(1)-[3-(4-piperidinyl)-Ala]-N-(2Nal)-Lys(DOTA)-(Ala)-C(1)-W-P-CONH2] (Ac-WT[Chg]C[Ala(piperidin-4-yl)]N[2Nal]K(DOTA)ACWP-NH2; linker 4-10 via CH2)
10 to 100	CC[C@H](C)[C@H](NC(=O)[C@@H](NC(=O)[C@H](Cc1c[nH]c2ccccc12)NC(C)=O)[C@@H](C)O)C(=O)N[C@H]1CSSC[C@@H](C(=O)N[C@@H](Cc2c[nH]c3ccccc23)C(=O)N2CCC[C@H]2C(=O)O)NC(=O)[C@H](CC(=O)O)NC(=O)[C@H](Cc2c[nH]cn2)NC(=O)[C@H](Cc2c[nH]c3ccccc23)NC(=O)[C@H](CC(=O)O)NC(=O)[C@H](CC(N)=O)N(C)C1=O [compound 384, Ac-W-T-I-C(3)-(NmeN)-N-W-H-D-C(3)-W-P-CONH2] (Ac-WTIC[NMeN]DWHDCWP-OH; disulfide 4-10)
100 to 300	CC[C@H](C)[C@H](NC(=O)[C@@H](NC(=O)[C@H](Cc1c[nH]c2ccccc12)NC(=O)[C@H](CCSC)NC(C)=O)[C@@H](C)O)C(=O)N[C@H]1CSSC[C@@H](C(=O)N[C@H](C)C(=O)N2CCC[C@H]2C(N)=O)NC(=O)[C@H](CC(=O)O)NC(=O)[C@H](Cc2cnc[nH]2)NC(=O)[C@H](Cc2c[nH]c3ccccc23)NC(=O)[C@H](CC(N)=O)NC(=O)[C@H](CC(N)=O)NC1=O [compound 9, Ac-M-W-T-I-C(3)-N-N-W-H-D-C(3)-(D-Ala)-P-CONH2] (Ac-MWTICNNWHDC[dA]P-NH2; disulfide 5-11)
1 to 10	CC(=O)N[C@@H](Cc1c[nH]c2ccccc12)C(=O)N[C@H](C(=O)N[C@@H](CC1CCCCC1)C(=O)N[C@H]1CSSC[C@@H](C(=O)N[C@@H](Cc2c[nH]c3ccccc23)C(=O)N2CCC[C@H]2C(N)=O)NC(=O)[C@H](CC(=O)O)NC(=O)[C@H](Cc2cnc[nH]2)NC(=O)[C@H](Cc2c[nH]c3ccccc23)NC(=O)[C@H](CC(N)=O)NC(=O)[C@H](CC(N)=O)NC1=O)[C@@H](C)O [compound 340, Ac-W-T-(CHA)-C(3)-N-N-W-H-D-C(3)-W-P-CONH2] (Ac-WT[Cha]CNNWHDCWP-NH2; disulfide 4-10)
1 to 10	CC[C@H](C)[C@H](NC(=O)[C@@H](NC(=O)[C@H](Cc1c[nH]c2ccccc12)NC(C)=O)[C@@H](C)O)C(=O)N[C@H]1CSSC[C@@H](C(=O)N[C@@H](Cc2c[nH]c3ccccc23)C(=O)N2CCC[C@H]2C(N)=O)NC(=O)[C@H](CC(=O)O)NC(=O)[C@H](Cc2c[nH]cn2)NC(=O)[C@H](Cc2ccc(F)cc2)NC(=O)[C@H](CC(N)=O)NC(=O)[C@H](CC(N)=O)NC1=O [compound 49, Ac-W-T-I-C(3)-N-N-(4Fluoro-F)-H-D-C(3)-W-P-CONH2] (Ac-WTICNN[Phe(4-F)]HDCWP-NH2; disulfide 4-10)
10 to 100	CC[C@H](C)[C@H](NC(=O)[C@@H](NC(=O)[C@H](Cc1c[nH]c2ccccc12)NC(=O)[C@H](CCSC)NC(C)=O)[C@@H](C)O)C(=O)N[C@H]1CSCSC[C@@H](C(=O)N[C@@H](Cc2c[nH]c3ccccc23)C(=O)N2CCC[C@H]2C(N)=O)NC(=O)[C@H](CC(=O)O)NC(=O)[C@H](Cc2cnc[nH]2)NC(=O)[C@H](Cc2c[nH]c3ccccc23)NC(=O)[C@H](CC(N)=O)NC(=O)[C@H](CC(N)=O)NC1=O [compound 32, Ac-M-W-T-I-C(1)-N-N-W-H-D-C(1)-W-P-CONH2] (Ac-MWTICNNWHDCWP-NH2; linker 5-11 via CH2)
100 to 300	CC[C@H](C)[C@H](NC(=O)[C@@H](NC(=O)[C@H](Cc1c[nH]c2ccccc12)NC(C)=O)[C@@H](C)O)C(=O)N[C@H]1CC(=O)NC[C@@H](C(=O)N[C@@H](Cc2c[nH]c3ccccc23)C(=O)N2CCC[C@H]2C(N)=O)NC(=O)[C@H](CC(=O)O)NC(=O)[C@H](Cc2c[nH]cn2)NC(=O)[C@H](Cc2c[nH]c3ccccc23)NC(=O)[C@H](CC(N)=O)NC(=O)[C@H](CC(N)=O)NC1=O [compound 120, Ac-W-T-I-(L-Asp)*-N-N-W-H-D-(L-Dap)*-W-P-CONH2 (* denotes lactam between side chains between L-Asp and L-Dap)] (Ac-WTIDNNWHD[Dap]WP-NH2; lactam 4-10)
1 to 10	CCCC[C@H](NC(=O)[C@@H](NC(=O)[C@H](Cc1c[nH]c2ccccc12)NC(C)=O)[C@@H](C)O)C(=O)N[C@H]1CSSC[C@@H](C(=O)N[C@@H](Cc2c[nH]c3ccccc23)C(=O)N2CCC[C@H]2C(N)=O)NC(=O)[C@H](CC(=O)O)NC(=O)[C@H](Cc2cnc[nH]2)NC(=O)[C@H](Cc2c[nH]c3ccccc23)NC(=O)[C@H](CC(N)=O)NC(=O)[C@H](CC(N)=O)NC1=O [compound 339, Ac-W-T-(Nle)-C(3)-N-N-W-H-D-C(3)-W-P-CONH2] (Ac-WT[Nle]CNNWHDCWP-NH2; disulfide 4-10)
1 to 10	CCC(CC)[C@H](NC(=O)[C@@H](NC(=O)[C@H](Cc1c[nH]c2ccccc12)NC(C)=O)[C@@H](C)O)C(=O)N[C@H]1CSSC[C@@H](C(=O)N[C@@H](Cc2c[nH]c3ccccc23)C(=O)N2CCC[C@H]2C(N)=O)NC(=O)[C@H](CC(=O)O)NC(=O)[C@H](Cc2cnc[nH]2)NC(=O)[C@H](Cc2c[nH]c3ccccc23)NC(=O)[C@H](CC(N)=O)NC(=O)[C@H](CC(N)=O)NC1=O [compound 337, Ac-W-T-(Env)-C(3)-N-N-W-H-D-C(3)-W-P-CONH2] (Ac-WT[Nva(3-Et)]CNNWHDCWP-NH2; disulfide 4-10)
< 1	CC(=O)N[C@@H](Cc1c[nH]c2c(C)cccc12)C(=O)N[C@H](C(=O)N[C@H](C(=O)N[C@H]1CSSC[C@@H](C(=O)N[C@@H](Cc2c[nH]c3ccccc23)C(=O)N2CCC[C@H]2C(N)=O)NC(=O)[C@H](CC(=O)O)NC(=O)[C@H](CCCCNC(=O)CN2CCN(CC(=O)O)CCN(CC(=O)O)CCN(CC(=O)O)CC2)NC(=O)[C@H](Cc2ccc3ccccc3c2)NC(=O)[C@H](CC(N)=O)NC(=O)[C@H](CC2CCNCC2)NC1=O)C1CCCCC1)[C@@H](C)O [compound 404, Ac-(7Me-Trp)-T-(Chg)-C(3)-[3-(4-piperidinyl)-Ala]-N-(2Nal)-Lys(DOTA)-D-C(3)-W-P-CONH2] (Ac-[Trp(7-Me)]T[Chg]C[Ala(piperidin-4-yl)]N[2Nal]K(DOTA)DCWP-NH2; disulfide 4-10)
< 1	COc1cccc2c(C[C@H](NC(C)=O)C(=O)N[C@H](C(=O)N[C@H](C(=O)N[C@H]3CSCSC[C@@H](C(=O)N[C@@H](Cc4c[nH]c5ccccc45)C(=O)N4CCCC4C(N)=O)NC(=O)[C@H](CC(=O)O)NC(=O)[C@H](CCCCNC(=O)CN4CCN(CC(=O)O)CCN(CC(=O)O)CCN(CC(=O)O)CC4)NC(=O)[C@H](Cc4ccc5ccccc5c4)NC(=O)[C@H](CC(N)=O)NC(=O)[C@H](CC4CCNCC4)NC3=O)C3CCCCC3)[C@@H](C)O)c[nH]c12 (stereo partly drawn) [compound 430, Ac-(7MeO-Trp)-T-(Chg)-C(1)-[3-(4-piperidinyl)-Ala]-N-(2Nal)-Lys(DOTA)-D-C(1)-W-P-CONH2] (Ac-[Trp(7-OMe)]T[Chg]C[Ala(piperidin-4-yl)]N[2Nal]K(DOTA)DCW[ξP]-NH2; linker 4-10 via CH2)
< 1	CC(=O)N[C@@H](Cc1c[nH]c2ccccc12)C(=O)N[C@H](C(=O)N[C@H](C(=O)N[C@H]1CSSC[C@@H](C(=O)N[C@@H](Cc2c[nH]c3ccccc23)C(=O)N2CCC[C@H]2C(N)=O)NC(=O)[C@H](CC(=O)O)NC(=O)[C@H](CCCCNC(=O)C[C@H]2CC[C@H](NC(=O)CN3CCN(CC(=O)O)CCN(CC(=O)O)CCN(CC(=O)O)CC3)CC2)NC(=O)[C@H](Cc2ccc3ccccc3c2)NC(=O)[C@H](CC(N)=O)NC(=O)[C@H](CN2CCOCC2)NC1=O)C1CCCCC1)[C@@H](C)O [compound 380, Ac-W-T-(Chg)-C(3)-[3-(1-morpholinyl)-Ala]-N-(2Nal)-Lys(Chx-DOTA)-D-C(3)-W-P-CONH2] (Ac-WT[Chg]C[Ala(morpholin-4-yl)]N[2Nal]K(X7)DCWP-NH2; disulfide 4-10)

From US20250049970A1, “DLL3 TARGETING PEPTIDES AND CONSTRUCTS THEREOF” (MARIANA ONCOLOGY INC., priority 2023, published 2025)
